Laboratory results taken from patent US20040259096A1, “Receptor capture assay” (priority 2001, published 2004).

Assays:
Ah receptor = test: Receptor capture assay employing ARNT-GST fusion protein, anti-GST plate, PCR and gel densitometry; type: biochemical, murine; conditions: B-naphthoflavone 10 μM; duplicate samples; 30 cycles PCR; DMSO control 363
Protocol: The receptor was activated in the presence of ARNT/GST binding partner and test sample. Sufficient ARNT/GST was added to displace the endogenous ARNT present in the Ah receptor preparation. In a tube, 98 μl Hepa1c1c7 (0.8 mg) extract was incubated with 1 μl GST-ARNT (50 ng) and 1 μl sample (e.g. BNF or vehicle alone) at 30° C. for 1 hour. Non-specific binding of the nucleic acid-tracer was reduced by preincubating the reaction mix with NaCl to 60 mM and 2 μg salmon sperm DNA for 15 min. at room temperature. Nucleic acid-tracer was added to 50 fmol and the reaction was incubated 20 min at room temperature. The complex was captured on a commercially available 96-well anti-GST plate (Perkin Elmer Life Sciences, Boston, Mass.). The anti-GST coated microtiter plate was washed once with Wallac Wash Buffer prior to addition of 50 μl receptor-DNA reaction. […]
Samples were analyzed by agarose gel electrophoresis with visualization of ethidium-bromide stained DNA bands under UV radiation Typically, 20 μl of each sample was analyzed in the 4% gels, yielding bright fluorescent bands from the positive controls. […] Negatives were scanned using an HPscanjet 2200c and DNA bands were quantified using ScionImage (Scion Corporation) software.
Duplicate samples were analyzed with the protocol described above with B-naphthoflavone (10 μM) or vehicle (DMSO) following 30 cycles PCR. […]

AhR [1] = molecular target: T1, AhR (Cavia porcellus, UniProt Q6J287); test: Receptor capture assay, real-time PCR, AhR derived from guinea pig; type: biochemical; set-up: The cytosol containing AhR heteromers was stored at; from tissue; host or cells: liver cytosol of Hartley guinea pigs
T1 sequence (Q6J287 1-846): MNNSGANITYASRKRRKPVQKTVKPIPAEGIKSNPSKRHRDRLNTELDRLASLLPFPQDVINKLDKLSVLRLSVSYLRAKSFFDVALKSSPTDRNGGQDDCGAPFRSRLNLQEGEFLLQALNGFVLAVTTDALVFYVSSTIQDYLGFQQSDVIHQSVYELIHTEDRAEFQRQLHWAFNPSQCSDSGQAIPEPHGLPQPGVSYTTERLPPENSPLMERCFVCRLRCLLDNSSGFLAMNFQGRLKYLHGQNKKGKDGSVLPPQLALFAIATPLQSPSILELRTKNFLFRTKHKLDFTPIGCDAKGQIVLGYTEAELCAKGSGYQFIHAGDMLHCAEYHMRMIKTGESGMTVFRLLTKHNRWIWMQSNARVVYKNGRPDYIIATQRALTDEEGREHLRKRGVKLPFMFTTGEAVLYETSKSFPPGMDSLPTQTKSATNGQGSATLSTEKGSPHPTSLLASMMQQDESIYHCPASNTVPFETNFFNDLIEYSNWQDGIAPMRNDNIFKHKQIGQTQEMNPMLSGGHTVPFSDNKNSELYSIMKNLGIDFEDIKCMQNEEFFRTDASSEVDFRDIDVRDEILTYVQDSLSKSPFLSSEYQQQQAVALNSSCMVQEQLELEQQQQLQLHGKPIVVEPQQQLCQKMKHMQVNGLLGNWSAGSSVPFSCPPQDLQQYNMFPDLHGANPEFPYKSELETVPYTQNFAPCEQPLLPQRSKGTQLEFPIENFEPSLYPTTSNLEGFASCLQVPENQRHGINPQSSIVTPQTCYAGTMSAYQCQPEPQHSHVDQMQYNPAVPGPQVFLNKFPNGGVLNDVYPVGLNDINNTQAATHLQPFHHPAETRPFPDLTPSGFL
Protocol: (§1) A set of calibrators consisting of 5000, 2500, 1250, 626, 313, 156, and 78 parts per trillion (ppt or pg/ml) 2,3,7,8-tetrachlorodibenzo-p-dioxin (TCDD) was prepared in methanol. In addition to TCDD a set of calibrators for AhR agonist, beta-naphthoflavone (BNF) was prepared and analyzed in the assay. Separately, 25 ul of 1:50,000 dilution of 10 uM stock nucleic acid-tracer was added per 1 ml of rodent cytosol, which was the source of AhR, and was aliquoted into glass tubes. The standards were diluted 1:20 into 50-100 ul of rodent cytosol, and incubated for 1-2 hr at room temperature to 37° C. Following incubation, 40 to 100 ul of the reaction was transferred to each well of the antibody-coated Capture Strip and incubated on a shaking platform for 30 min to 1 hr at room temperature. The Capture Strips were washed 5 times with Wash Buffer B, and aspirated; optionally soaking wells for 30 sec-5 min with wash buffer during each cycle. Taqman® Universal PCR Master Mix, primers, and Taqman® probe (Applied Biosystems, Calif.) were added, and adhesive cover applied. PCR was performed and analyzed using an ABI PRISM® 7700, using default settings: 50° C., 2 min, 95° C. […] A threshold cycle (Ct) was determined for each reaction The Ct represents the PCR cycle at which an increase in reporter fluorescence above baseline signal can first be detected.

AhR [2] = molecular target: T2, AhR (Rattus norvegicus, UniProt P41738); test: Receptor capture assay, real-time PCR, AhR derived from rat; type: biochemical
T2 construct: The cytosol containing AhR heteromers was stored at; from tissue; host or cells: liver cytosol of Long-Evans rats
Protocol: as §1

T2 sequence (P41738 10-853): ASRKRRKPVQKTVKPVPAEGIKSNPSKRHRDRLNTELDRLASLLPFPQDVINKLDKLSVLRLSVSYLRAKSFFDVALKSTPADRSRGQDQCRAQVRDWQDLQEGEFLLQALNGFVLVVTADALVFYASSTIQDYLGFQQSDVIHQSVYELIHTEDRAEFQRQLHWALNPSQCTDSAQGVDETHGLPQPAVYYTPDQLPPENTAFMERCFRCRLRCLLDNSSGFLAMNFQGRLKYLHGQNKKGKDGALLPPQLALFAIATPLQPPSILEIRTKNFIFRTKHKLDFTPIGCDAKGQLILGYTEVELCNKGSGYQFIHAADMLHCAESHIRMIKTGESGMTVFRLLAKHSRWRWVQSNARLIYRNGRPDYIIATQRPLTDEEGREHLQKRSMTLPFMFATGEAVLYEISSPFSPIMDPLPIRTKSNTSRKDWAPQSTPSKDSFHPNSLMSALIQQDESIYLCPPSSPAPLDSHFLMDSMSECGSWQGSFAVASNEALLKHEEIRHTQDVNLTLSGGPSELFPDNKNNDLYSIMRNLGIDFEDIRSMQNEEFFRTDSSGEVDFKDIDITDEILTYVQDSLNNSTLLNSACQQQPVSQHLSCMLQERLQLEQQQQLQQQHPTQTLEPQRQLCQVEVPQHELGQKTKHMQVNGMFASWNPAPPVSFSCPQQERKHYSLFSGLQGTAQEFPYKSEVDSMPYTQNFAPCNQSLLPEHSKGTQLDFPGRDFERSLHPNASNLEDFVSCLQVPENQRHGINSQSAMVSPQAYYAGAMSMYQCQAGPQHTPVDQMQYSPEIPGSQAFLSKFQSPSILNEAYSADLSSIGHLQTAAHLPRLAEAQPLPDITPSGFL
T2 sequence (P41739 whole entry partner): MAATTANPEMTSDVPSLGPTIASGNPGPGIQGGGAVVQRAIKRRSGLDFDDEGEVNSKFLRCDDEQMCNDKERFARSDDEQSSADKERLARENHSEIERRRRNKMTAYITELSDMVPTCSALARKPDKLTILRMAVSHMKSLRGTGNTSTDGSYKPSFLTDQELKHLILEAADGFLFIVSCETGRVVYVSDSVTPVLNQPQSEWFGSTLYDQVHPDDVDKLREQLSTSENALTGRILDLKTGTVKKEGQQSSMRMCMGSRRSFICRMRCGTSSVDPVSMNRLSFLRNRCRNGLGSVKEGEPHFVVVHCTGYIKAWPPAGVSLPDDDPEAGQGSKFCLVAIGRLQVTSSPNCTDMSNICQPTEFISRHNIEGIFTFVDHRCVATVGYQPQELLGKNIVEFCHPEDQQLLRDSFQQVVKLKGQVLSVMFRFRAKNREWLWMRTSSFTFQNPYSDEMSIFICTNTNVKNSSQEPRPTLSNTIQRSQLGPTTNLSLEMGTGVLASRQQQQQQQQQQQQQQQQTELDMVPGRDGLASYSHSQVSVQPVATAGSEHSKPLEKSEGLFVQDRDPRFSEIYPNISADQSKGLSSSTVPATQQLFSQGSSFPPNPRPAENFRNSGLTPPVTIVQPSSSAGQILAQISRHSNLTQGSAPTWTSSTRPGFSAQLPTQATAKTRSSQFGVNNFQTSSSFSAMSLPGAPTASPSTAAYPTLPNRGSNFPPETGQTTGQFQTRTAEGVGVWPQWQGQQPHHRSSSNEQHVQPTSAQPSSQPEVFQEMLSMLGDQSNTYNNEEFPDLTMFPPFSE

| SMILES | average value of quantified DNA bands (Ah receptor) | slope of dose-response curve (AhR [1]) | EC50 of dose-response curve (AhR [1]; pg of TCDD in the assay) [pg] | slope of dose-response curve (AhR [2]) | EC50 of dose-response curve (AhR [2]; pg of TCDD in the assay) [pg] |
| --- | --- | --- | --- | --- | --- |
| O=c1cc(-c2ccccc2)oc2ccc3ccccc3c12 [BNF, beta-naphthoflavone] | 3013 |  |  |  |  |
| Clc1cc2c(cc1Cl)Oc1cc(Cl)c(Cl)cc1O2 [TCDD, 2,3,7,8-tetrachlorodibenzo-p-dioxin] |  | −1.042 | 2.6 | −1.208 | 2.8 |
